Results: patent US6869964B2, “Heterocyclicsulfonamide hepatitis C virus inhibitors” (Bristol-Myers Squibb Company, priority 2002, dated 2005)

Experiments:
[1] = target: T1, HCV NS3/4A protease complex (BMS strain) (Hepatitis C virus genotype 1a, UniProt P27958, C1454S); experiment: Recombinant HCV NS3/4A protease complex FRET peptide assay, BMS strain; type: biochemical, HCV genotype 1a; settings: NS3/4A BMS Strain, activity range; read-out: IC50 a, b, c (Activity Table)
T1 construct: HCV NS3/4A protease complex (amino acids 1027 to 1711); inferred from pET21b vector and Ni-NTA purification; made in house; host or cells: Escherichia coli BL21 (DE3), pET21b
T1 sequence (P27958 1027-1657 C1454S): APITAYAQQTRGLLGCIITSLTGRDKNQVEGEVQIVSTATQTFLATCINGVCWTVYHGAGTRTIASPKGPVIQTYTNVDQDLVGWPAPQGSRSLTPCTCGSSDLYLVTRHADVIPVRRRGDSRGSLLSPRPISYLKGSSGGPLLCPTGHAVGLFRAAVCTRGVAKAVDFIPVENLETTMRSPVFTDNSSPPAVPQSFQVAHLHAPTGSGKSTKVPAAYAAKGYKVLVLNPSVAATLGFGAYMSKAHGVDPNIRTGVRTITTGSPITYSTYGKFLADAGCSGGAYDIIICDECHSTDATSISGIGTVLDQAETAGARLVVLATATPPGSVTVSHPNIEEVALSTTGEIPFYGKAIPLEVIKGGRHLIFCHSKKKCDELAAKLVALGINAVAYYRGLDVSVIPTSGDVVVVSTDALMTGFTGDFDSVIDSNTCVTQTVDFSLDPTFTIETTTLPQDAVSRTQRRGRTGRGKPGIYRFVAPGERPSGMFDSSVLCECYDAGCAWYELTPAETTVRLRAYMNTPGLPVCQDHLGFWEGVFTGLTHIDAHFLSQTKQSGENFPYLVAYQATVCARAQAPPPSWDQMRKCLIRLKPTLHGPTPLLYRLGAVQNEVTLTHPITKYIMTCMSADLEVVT
T1 sequence (P27958 1658-1711 partner, looked up, stated change not applied): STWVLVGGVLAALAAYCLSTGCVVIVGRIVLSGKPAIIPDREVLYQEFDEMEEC
Description: Recombinant HCV NS3/4A Protease Complex FRET Peptide Assay
The purpose of this in vitro assay was to measure the inhibition of HCV NS3 protease complexes, derived from the BMS, H77C or J4l6S strains, as described below, by compounds of the present invention. This assay provides an indication of how effective compounds of the present invention would be in inhibiting HCV proteolytic activity.
Serum from an HCV-infected patient was obtained from Dr. T. Wright, San Francisco Hospital. An engineered full-length cDNA template of the HCV genome (BMS strain) was constructed from DNA fragments obtained by reverse transcription-PCR (RT-PCR) of serum RNA and using primers selected on the basis of homology between other genotype la strains. From the determination of the entire genome sequence, a genotype la was assigned to the HCV isolate according to the classification of Simmonds et al. (See P Simmonds, K A Rose, S Graham, S W Chan, F McOmish, B C Dow, E A Follett, P L Yap and H Marsden, J. Clin. Microbiol., 31(6), 1493-1503 (1993)). […] The infectious clones, H77C (1a genotype) and J4 L6S (1b genotype) were obtained from R. Purcell (NIH) and the sequences are published in Genbank (AAB67036, see Yanagi, M., Purcell, R. H., Emerson, S. U. and Bukh, J. Proc. Natl. Acad. Sci. U.S.A. 94(16),8738-8743 (1997); AF054247, see Yanagi, M., St Claire, M., Shapiro, M., Emerson, S. U., Purcell, R. H. and Bukh, J, Virology 244 (1), 161-172. (1998)).
The BMS, H77C and J4 L6S strains were used for production of recombinant NS3/4A protease complexes. DNA encoding the recombinant HCV NS3/4A protease complex (amino acids 1027 to 1711) for these strains were manipulated as described by P. Gallinari et al. (see Gallinari P, Paolini C, Brennan D, Nardi C, Steinkuhler C, De Francesco R. Biochemistry. 38(17):5620-32, (1999)). Briefly, a three-lysine solubilizing tail was added at the 3′-end of the NS4A coding region. The cysteine in the P1 position of the NS4A-NS4B cleavage site (amino acid 1711) was changed to a glycine to avoid the proteolytic cleavage of the lysine tag. Furthermore, a cysteine to serine mutation was introduced by PCR at amino acid position 1454 to prevent the autolytic cleavage in the NS3 helicase domain. The variant DNA fragment was cloned in the pET21b bacterial expression vector (Novagen) and the NS3/4A complex was expressed in Escherichia coli strain BL21 (DE3) (Invitrogen) following the protocol described by P. Gallinari et al. (see Gallinari P, Brennan D, Nardi C, Brunetti M, Tomei L, Steinkuhler C, De Francesco R., J Virol. 72(8):6758-69 (1998)) with modifications. Briefly, NS3/4A expression was induced with 0.5 mM Isopropyl β-D-1-thiogalactopyranoside (IPTG) for 22 hr at 20° C. A typical fermentation (10 L) yielded approximately 80 g of wet cell paste. The cells were resuspended in lysis buffer (10 mL/g) consisting of 25 mM N-(2-Hydroxyethyl)Piperazine-N′-(2-Ethane Sulfonic acid) (HEPES), pH7.5, 20% glycerol, 500 mM Sodium Chloride (NaCl), 0.5% Triton-X100, 1 ug/ml lysozyme, 5 mM Magnesium Chloride (MgCl2), 1 ug/ml DnaseI, 5 mM β-Mercaptoethanol (βME), Protease inhibitor—Ethylenediamine Tetraacetic acid (EDTA) free (Roche), homogenized and incubated for 20 mins at 4° C. The homogenate was sonicated and clarified by ultra-centrifugation at 235000 g for lhr at 4° C. Imidazole was added to the supernatant to a final concentration of 15 mM and the pH adjusted to 8.0. The crude protein extract was loaded on a Nickel—Nitrilotriacetic acid (Ni—NTA) column pre-equilibrated with buffer B (25 mM HEPES, pH8.0, 20% glycerol, 500 mM NaCl, 0.5% Triton-X100, 15 mM imidazole, 5 mM βME). The sample was loaded at a flow rate of 1 mL/min. The column was washed with 15 column volumes of buffer C (same as buffer B except with 0.2% Triton-X100). The protein was eluted with 5 column volumes of buffer D (same as buffer C except with 200 mM Imidazole). […]

[2] = system: HCV replicon in Huh7 cells; experiment: HCV replicon cell-based assay (FRET); set-up: species or system HCV strain 1B; settings: Hepatitis C virus, Huh-7; replicon, activity range; read-out: EC50 a, b, c (Activity Table)
Description: HCV Replicon Cell-based Assay
An HCV replicon whole cell system was established as described by Lohmann V, Korner F, Koch J, Herian U, Theilmann L, Bartenschlager R., Science 285(5424): 110-3 (1999). This system enabled us to evaluate the effects of our HCV Protease compounds on HICV RNA replication. Briefly, using the HCV strain 1B sequence described in the Lohmann paper (Assession number: AJ238799), an HCV cDNA was generated encoding the 5′ internal ribosome entry site (IRES), the neomycin resistance gene, the EMCV (encephalomyocarditis virus)-IRES and the HCV nonstructural proteins, NS3-NS5B, and 3′ non-translated region (NTR). In vitro transcripts of the cDNA were transfected into the human hepatoma cell line, Huh7. […] Resulting cell lines were characterized for positive and negative strand RNA production and protein production over time.
Huh7 cells, constitutively expressing the HCV replicon, were grown in Dulbecco's Modified Eagle Media (DMEM) containing 10% Fetal calf serum (FCS) and 1 mg/ml G418 (Gibco-BRL). Cells were seeded the night before (1.5×10^4 cells/well) in 96-well tissue-culture sterile plates. Compound and no compound controls were prepared in DMEM containing 4% FCS, 1:100 Penicillin/Streptomysin, 1:100 L-glutamine and 5% DMSO in the dilution plate (0.5% DMSO final concentration in the assay). Compound/DMSO mixes were added to the cells and incubated for 4 days at 37° C. After 4 days, plates were rinsed thoroughly with Phosphate-Buffered Saline (PBS) (3 times 150 μl). The cells were lysed with 25 μl of a lysis assay reagent containing the FRET peptide (RET S1, as described for the in vitro enzyme assay). The lysis assay reagent was made from 5× cell Luciferase cell culture lysis reagent(Promega #E153A) diluted to 1× with distilled water, NaCl added to 150 mM final, the FRET peptide diluted to 10 μM final from a 2 mM stock in 100% DMSO. The plate was then placed into the Cytofluor 4000 instrument which had been set to 340 nm excitation/490 emission, automatic mode for 21 cycles and the plate read in a kinetic mode. EC50 determinations were carried out as described for the IC50 determinations.

Row | SMILES | IC50 [1] | EC50 [2]
1 | C=CC1C[C@]1(NC(=O)[C@@H]1C[C@@H](Oc2cc(-c3ccccc3)nc3cc(OC)ccc23)CN1C(=O)[C@@H](NC(=O)OC(C)(C)C)C(C)(C)C)C(=O)NS(=O)(=O)C1CCS(=O)(=O)C1 (mixture of isomers) [Compound 13, {1-[2-[1-(1,1-Dioxo-tetrahydro-1H-1[…]6-thiophene-3(R/S)-sulfonylaminocarbonyl)-2-vinylcyclopropylcarbamoyl]-4-(7-methoxy-2-phenyl-quinolin-4-yloxy)pyrrolidine-1-carbonyl]-2,2-dimethylpropyl}carbamic acid tert-butyl ester] | < 100 nM | 100 to 1000 nM
2 | C=CC1C[C@]1(NC(=O)[C@@H]1C[C@@H](Oc2cc(-c3ccccc3)nc3cc(OC)ccc23)CN1C(=O)[C@@H](NC(=O)OC(C)(C)C)C(C)(C)C)C(=O)NS(=O)(=O)c1ccc(Cl)s1 (stereo in doubt) [Compound 2, (1-{4-(7-Methoxy-2-phenylquinolin-4-yloxy)-2-[1-(5-Chlorothiophene-2-sulfonylaminocarbonyl)-2-vinyl-cyclopropylcarbamoyl]-pyrrolidine-1-carbonyl}-2,2-dimethylpropyl)carbamic acid tert-butyl ester] | < 100 nM | 100 to 1000 nM
3 | C=CC1C[C@]1(NC(=O)[C@@H]1C[C@@H](Oc2cc(-c3ccccc3)nc3cc(OC)ccc23)CN1C(=O)[C@@H](NC(=O)OC(C)(C)C)C(C)(C)C)C(=O)NS(=O)(=O)c1ccc([N+](=O)[O-])s1 (stereo in doubt) [Compound 3, (1-{4-(7-Methoxy-2-phenylquinolin-4-yloxy)-2-[1-(5-Nitrothiophene-2-sulfonylaminocarbonyl)-2-vinyl-cyclopropylcarbamoyl]pyrrolidine-1-carbonyl}-2,2-dimethylpropyl)carbamic acid tert-butyl ester] | 100 to 1000 nM | 100 to 1000 nM
4 | C=CC1C[C@]1(NC(=O)[C@@H]1C[C@@H](Oc2cc(-c3ccccc3)nc3cc(OC)ccc23)CN1C(=O)[C@@H](NC(=O)OC(C)(C)C)C(C)(C)C)C(=O)NS(=O)(=O)c1ccc(Br)s1 (stereo in doubt) [Compound 4, (1-{4-(7-Methoxy-2-phenylquinolin-4-yloxy)-2-[1-(5-Bromothiophene-2-sulfonylaminocarbonyl)-2-vinyl-cyclopropylcarbamoyl]pyrrolidine-1-carbonyl}-2,2-dimethylpropyl)carbamic acid tert-butyl ester] | < 100 nM | 100 to 1000 nM
5 | C=CC1C[C@]1(NC(=O)[C@@H]1C[C@@H](Oc2cc(-c3ccccc3)nc3cc(OC)ccc23)CN1C(=O)[C@@H](NC(=O)OC(C)(C)C)C(C)(C)C)C(=O)NS(=O)(=O)c1ccc(Sc2ccc(Cl)cc2)s1 (stereo in doubt) [Compound 5, {1-[2-{1-[5-(4-Chlorophenylsulfanyl)-thiophene-2-sulfonylamino-carbonyl]-2-vinyl-cyclopropylcarbamoyl}-4-(7-methoxy-2-phenyl-quinolin-4-yloxy)-pyrrolidine-1-carbonyl]-2,2-dimethylpropyl}carbamic acid tert-butyl ester] | 100 to 1000 nM | 1000 to 10000 nM
6 | C=CC1C[C@]1(NC(=O)[C@@H]1C[C@@H](Oc2cc(-c3ccccc3)nc3cc(OC)ccc23)CN1C(=O)[C@@H](NC(=O)OC(C)(C)C)C(C)(C)C)C(=O)NS(=O)(=O)c1cc(Br)c(Cl)s1 (stereo in doubt) [Compound 7, {1-[2-{1-[4-Bromo-5-chlorothiophene-2-sulfonylamino-carbonyl]-2-vinylcyclopropylcarbamoyl}-4-(7-methoxy-2-phenyl-quinolin-4-yloxy)pyrrolidine-1-carbonyl]-2,2-dimethylpropyl}carbamic acid tert-butyl ester] | < 100 nM | 1000 to 10000 nM
7 | C=CC1C[C@]1(NC(=O)[C@@H]1C[C@@H](Oc2cc(-c3ccccc3)nc3cc(OC)ccc23)CN1C(=O)[C@@H](NC(=O)OC(C)(C)C)C(C)(C)C)C(=O)NS(=O)(=O)c1cc(Cl)c(Cl)s1 (stereo in doubt) [Compound 8, {1-[2-{1-[4,5-dichlorothiophene-2-sulfonylaminocarbonyl]-2-vinylcyclopropylcarbamoyl}-4-(7-methoxy-2-phenyl-quinolin-4-yloxy)pyrrolidine-1-carbonyl]-2,2-dimethylpropyl}carbamic acid tert-butyl ester] | < 100 nM | 100 to 1000 nM
8 | C=CC1C[C@]1(NC(=O)[C@@H]1C[C@@H](Oc2cc(-c3ccccc3)nc3cc(OC)ccc23)CN1C(=O)[C@@H](NC(=O)OC(C)(C)C)C(C)(C)C)C(=O)NS(=O)(=O)c1sc(C)nc1C (stereo in doubt) [Compound 9, {1-[2-{1-[2,4-dimethylthiazole-5-sulfonylaminocarbonyl]-2-vinylcyclopropylcarbamoyl}-4-(7-methoxy-2-phenyl-quinolin-4-yloxy)pyrrolidine-1-carbonyl]-2,2-dimethylpropyl}carbamic acid tert-butyl ester] | < 100 nM | 100 to 1000 nM
9 | C=CC1C[C@]1(NC(=O)[C@@H]1C[C@@H](Oc2cc(-c3ccccc3)nc3cc(OC)ccc23)CN1C(=O)[C@@H](NC(=O)OC(C)(C)C)C(C)(C)C)C(=O)NS(=O)(=O)c1ccc(C)cn1 (stereo in doubt) [Compound 10, (1-{4-(7-Methoxy-2-phenyl-quinolin-4-yloxy)-2-[1-(5-methyl-pyridine-2-sulfonylaminocarbonyl)-2-vinylcyclopropylcarbamoyl]pyrrolidine-1-carbonyl}-2,2-dimethylpropyl)carbamic acid tert-butyl ester] | < 100 nM | 100 to 1000 nM
